According to the NIST ThermoML archive (doi:10.1016/j.fluid.2016.08.041):
Numbers after ± are expanded uncertainties.

What was measured:
[1] = 298.2 K; 101.33 kPa; Liquid; Vibrating tube method
[2] = refractive index (Na D-line) (dimensionless); conditions: 298.2 K; 101.33 kPa; Liquid; Standard Abbe refractometry

SMILES	mass density [1] [kg/m3]	refractive index [2]
CC(C)CCO [3-methylbutan-1-ol]	807.16 ± 0.35	1.40528 ± 0.00042
CCOC(=O)CCC(=O)OCC [diethyl butanedioate]	1035.34 ± 0.4	1.41967 ± 0.00042
O=CO [formic acid]	1214.1 ± 0.51	1.36939 ± 0.00042

Now from value to molecule:

mass density [1] [kg/m3]	refractive index [2]	SMILES
959.18 ± 0.37	1.43485 ± 0.00042	CCOC(=O)CCCCCCCCC(=O)OCC [diethyl decanedioate]
862.23 ± 0.36	1.41572 ± 0.00042	CCCCCCCC(=O)OCC [ethyl octanoate]
872.36 ± 0.36	1.39841 ± 0.00042	CCCCC(=O)OCC [ethyl pentanoate]
